Key:
Type in all cases: functional
Mus musculus [1] = assay: Antiparkinsonian activity in MPTP C57Bl/6 mouse model assessed as movement speed at 20 mg/kg, po administered 24 hrs loast last dose of MPTP measured after 2 hrs post compound dose by open field test relative to saline-treated control
Mus musculus [2] = assay: Antiparkinsonian activity in MPTP C57Bl/6 mouse model assessed as time of locomotor activity at 20 mg/kg, po administered 24 hrs loast last dose of MPTP measured after 2 hrs post compound dose by open field test relative to saline-treated control
Mus musculus [3] = assay: Antiparkinsonian activity in MPTP C57Bl/6 mouse model assessed as movement distance at 20 mg/kg, po administered 24 hrs loast last dose of MPTP measured after 2 hrs post compound dose by open field test relative to saline-treated control
Mus musculus [4] = assay: Antiparkinsonian activity in MPTP C57Bl/6 mouse model assessed as immobility time at 20 mg/kg, po administered 24 hrs loast last dose of MPTP measured after 2 hrs post compound dose by open field test relative to saline-treated control

Structure (SMILES)	Activity (Mus musculus [1]) [cm/s]	Time (Mus musculus [2]) [s]	Activity (Mus musculus [3]) [cm]	Time (Mus musculus [4]) [s]
C=C(C)[C@@H]1CC=C(C)[C@@H](O)[C@@H]1O	2.6	69.2	302	50.8
C=C(CSCCC)[C@@H]1CC=C(C)[C@@H](O)[C@@H]1O	2.6	61.4	317.6	58.6
C=C1CO[C@H]2[C@H](O)C(C)=CC[C@@H]12	1.7	46.6	214	73.4
C=C(CCCCC)[C@@H]1CC=C(C)[C@@H](O)[C@@H]1O	2.7	63.2	335.2	56.8
C=C(CNC1C2CC3CC(C2)CC1C3)[C@@H]1CC=C(C)[C@@H](O)[C@@H]1O (stereo not given in full)	1.2	34.8	149.7	85.2
C=C(CNCCN(C)C)[C@@H]1CC=C(C)[C@@H](O)[C@@H]1O	1.8	51.2	225	68.8
C=C(CN1C(=O)c2ccccc2C1=O)[C@@H]1CC=C(C)[C@@H](O)[C@@H]1O	2.3	58.3	280	61.7
C=C(CN1CCOCC1)[C@@H]1CC=C(C)[C@@H](O)[C@@H]1O	1.7	48.5	215.3	71.5
C=C(CO)[C@@H]1CC=C(C)[C@@H](O)[C@@H]1O	1.5	37.2	182.1	80
C=C(CN)[C@@H]1CC=C(C)[C@@H](O)[C@@H]1O	2	53.5	248.6	66.5
